{
  "source": "paper PMC11584639",
  "about": "(Nature Communications, 2024)",
  "molecular_target": "Bruton's tyrosine kinase (BTK) (Mus musculus, UniProt P35991)",
  "sequence (P35991 2-659)": "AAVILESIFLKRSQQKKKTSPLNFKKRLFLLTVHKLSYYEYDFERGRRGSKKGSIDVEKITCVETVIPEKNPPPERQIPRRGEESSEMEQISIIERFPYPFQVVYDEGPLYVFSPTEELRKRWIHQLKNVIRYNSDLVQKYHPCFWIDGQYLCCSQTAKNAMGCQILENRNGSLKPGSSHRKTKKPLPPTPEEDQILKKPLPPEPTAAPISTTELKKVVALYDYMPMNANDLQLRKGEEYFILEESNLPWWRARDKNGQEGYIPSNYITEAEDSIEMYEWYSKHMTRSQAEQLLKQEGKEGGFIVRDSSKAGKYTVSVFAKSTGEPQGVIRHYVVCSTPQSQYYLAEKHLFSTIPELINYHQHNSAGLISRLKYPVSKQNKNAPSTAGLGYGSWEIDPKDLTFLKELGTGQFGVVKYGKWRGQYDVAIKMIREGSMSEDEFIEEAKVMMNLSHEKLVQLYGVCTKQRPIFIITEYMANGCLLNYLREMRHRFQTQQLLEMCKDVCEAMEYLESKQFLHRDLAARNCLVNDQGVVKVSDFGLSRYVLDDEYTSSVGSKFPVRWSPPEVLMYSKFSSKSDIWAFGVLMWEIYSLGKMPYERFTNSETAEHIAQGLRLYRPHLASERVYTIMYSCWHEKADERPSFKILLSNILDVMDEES",
  "assay_type": "cell-based",
  "data": [
    {"compound": "C=CC(=O)N1CCC[C@@H](n2c(=O)n(-c3ccc(Oc4ccccc4)cc3)c3c(N)nccc32)C1", "note": "[tolebrutinib]", "values": [
      {"measurement": "pBTK-to-BTK ratio by Western blot in primary mouse microglia with or without com", "result": "This stimulus increased BTK phosphorylation, which was blocked by tolebrutinib"}
    ]}
  ]
}
